Measurements taken from patent US20040076974A1, “Liver necrosis predictive genes” (priority 2002, published 2004).
Read-outs that look alike come from different tables or passages of the source.

System: Sprague Dawley rats
Description: Sprague Dawley rats Crl:CD from Charles River, Raleigh, N.C. were divided into treated rats that receive a specific concentration of the compound (see Table 1) and. control rats that only received the vehicle in which the compound is mixed (e.g., saline).
At specified timepoints (6 h, 24 h and 72 h) after administration (intraperitoneal route) of the compound, a set number of rats (usually 3 control and 3 treated) were euthanized and tissues collected. Each, rat was heavily sedated with an overdose of CO2 by inhalation and a maximum amount of blood drawn. Exsanguination of the rat by this drawing of blood kills the rat. The method of collecting the tissues is very important and ensures preserving the quality of the mRNA in the tissues. The body of the rat was then opened up and prosectors rapidly removed the tissues (including) and immediately placed them into liquid nitrogen. […] The organs/tissues were then packaged into well-labeled plastic freezer quality bags and stored at −80 degrees until needed for isolation of the mRNA from a portion of the organ/tissue sample.
Histopathology scores for each animal (assigned on a compound-dose basis as indicated in Table 1) were entered with gene expression data by using the GeneSpring™ ‘Drawn Gene’ function. Correlations between the histopathology scores and gene expression were conducted with the distance measures listed below:
Toxicity classifications were entered for training and test set as a parameter column. Toxicity, as defined by observation of necrosis in the at 72 hours after treatment, was entered as a “yes” or “no” for each animal in a compound-dose group. Additionally, a parameter column for random histopathology classification was designated. This was done by randomly assigning the same number of “yes” and “no” calls to the individual animals.

[1] = compound-dose group at 72 h; dose 20
[2] = compound-dosegroup at 72 h, dose 20
[3] = rat, intraperitoneal, dose 20 mg/kg, 72 hours after treatment
[4] = rat, intraperitoneal, dose 20 mg/kg, 72 hours; 1 = not remarkable, 2 and higher increasing severity
[5] = Sprague Dawley, rat, in vivo, ip, 50 mg/kg, 72 h
[6] = 72 h; compound-dose group; dose BRB 800, BUS 14, CAD 1, CAR 16
[7] = compound-dose group at 72 h; BUS 14, CAD 1, CAR 16 (dose codes, Table 1)

## CN(N=O)C(=O)N[C@H]1C(O)O[C@H](CO)[C@@H](O)[C@@H]1O (mixture of isomers) [streptozotocin]
compound-dose group at 72 h, dose 20
  Liver Toxicity Necrosis Classification: no
compound-dose group at 72 h, dose 75
  Liver Toxicity Necrosis Classification: no
[1]
  Liver Toxicity Necrosis Classification: no
compound-dose group at 72 h; dose 75
  Liver Toxicity Necrosis Classification: no
[2]
  Liver Toxicity Necrosis Classification: no
compound-dosegroup at 72 h, dose 75
  Liver Toxicity Necrosis Classification: no
compound-dosegroup at 72 h; dose PEG 5000, PUR 38, QUIN 25, STRZ 20
  Liver Toxicity Necrosis Classification: no
[3]
  Liver Necrosis: no
[4]
  Score (histopathology liver necrosis severity score): 1
rat, intraperitoneal, dose 75 mg/kg, 72 hours after treatment
  Liver Necrosis: no
rat, intraperitoneal, dose 75 mg/kg, 72 hours; 1 = not remarkable, 2 and higher increasing severity
  Score (histopathology liver necrosis severity score): 1

## O=c1[nH]cc(F)c(=O)[nH]1 [5-fluorouracil]
Sprague Dawley, rat, in vivo, ip, 13 mg/kg, 72 h
  Score (histopathology liver necrosis severity score): 1
[5]
  Score (histopathology liver necrosis severity score): 1
rat, in vivo
  Liver Toxicity Necrosis Classification: no
rat, in vivo, ip, 13 mg/kg
  Liver Necrosis: no
rat, in vivo, ip, 50 mg/kg
  Liver Necrosis: no

## C[C@@H]1[C@H](O)[C@@H](C)/C=C/C=C/C=C/C=C/C=C/C=C/C=C/[C@H](O[C@@H]2O[C@H](C)[C@@H](O)[C@H](N)[C@@H]2O)C[C@@H]2O[C@](O)(C[C@@H](O)C[C@@H](O)[C@H](O)CC[C@@H](O)C[C@@H](O)CC(=O)O[C@H]1C)C[C@H](O)[C@H]2C(=O)O [amphotericin B]
72 h; dose 5
  Liver Toxicity Necrosis Classification: no
72 h; dose 20
  Liver Toxicity Necrosis Classification: no
AMPB 20; 72 h
  Liver Toxicity Necrosis Classification: no
compound-dose group at 72 h; dose 5
  Liver Toxicity Necrosis Classification: no
[1]
  Liver Toxicity Necrosis Classification: no
compound-dosegroup at 72 h, dose 5
  Liver Toxicity Necrosis Classification: no
[2]
  Liver Toxicity Necrosis Classification: no
rat, intraperitoneal, dose 5 mg/kg, 72 hours after treatment
  Liver Necrosis: No
rat, intraperitoneal, dose 5 mg/kg, 72 hours; 1 = not remarkable, 2 and higher increasing severity
  Score (histopathology liver necrosis severity score): 1
[3]
  Liver Necrosis: No
[4]
  Score (histopathology liver necrosis severity score): 1

## Cn1cnc([N+](=O)[O-])c1Sc1ncnc2nc[nH]c12 [azathioprine]
[5]
  Score (histopathology liver necrosis severity score): 1
Sprague Dawley, rat, in vivo, ip, 200 mg/kg, 72 h
  Score (histopathology liver necrosis severity score): 1
rat, in vivo
  Liver Toxicity Necrosis Classification: no
rat, in vivo, ip, 50 mg/kg
  Liver Necrosis: No
rat, in vivo, ip, 200 mg/kg
  Liver Necrosis: No

## c1ccccc1 [benzene]
rat, in vivo
  Liver Toxicity Necrosis Classification: no
rat, in vivo, ip
  Liver Necrosis: No
  Score (histopathology liver necrosis severity score): 1

## c1ccc2c(c1)cc1ccc3cccc4ccc2c1c34 [benzo[a]pyrene]
compound-dose group at 72 h; dose 30
  Liver Toxicity Necrosis Classification: no
rat, intraperitoneal, dose 30 mg/kg, 72 hours after treatment
  Liver Necrosis: No
rat, intraperitoneal, dose 30 mg/kg, 72 hours; 1 = not remarkable, 2 and higher increasing severity
  Score (histopathology liver necrosis severity score): 1

## CS(=O)(=O)OCCCCOS(C)(=O)=O [busulfan]
Sprague Dawley, rat, in vivo, ip, 14 mg/kg, 72 h
  Score (histopathology liver necrosis severity score): 1
rat, in vivo
  Liver Toxicity Necrosis Classification: no
rat, in vivo, ip, 14 mg/kg
  Liver Necrosis: no

## [Cl][Cd][Cl] [cadmium chloride]
[6]
  Liver Toxicity Necrosis Classification: no
72 h; compound-dose group; dose CAD 2
  Liver Toxicity Necrosis Classification: no
compound-dose group at 72 h, dose 1; no = no necrosis observed
  Liver Toxicity Necrosis Classification: no
compound-dose group at 72 h, dose 4; yes = necrosis observed
  Liver Toxicity Necrosis Classification: yes
[7]
  Liver Toxicity Necrosis Classification: no
rat, intraperitoneal, dose 1 mg/kg, 72 hours after treatment
  Liver Necrosis: no
rat, intraperitoneal, dose 1 mg/kg, 72 hours; 1 = not remarkable, 2 and higher increasing severity
  Score (histopathology liver necrosis severity score): 1
rat, intraperitoneal, dose 2 mg/kg, 72 hours after treatment
  Liver Necrosis: No
rat, intraperitoneal, dose 2 mg/kg, 72 hours; 1 = not remarkable, 2 and higher increasing severity
  Score (histopathology liver necrosis severity score): 1
rat, intraperitoneal, dose 4 mg/kg, 72 hours after treatment
  Liver Necrosis: Yes
rat, intraperitoneal, dose 4 mg/kg, 72 hours; 1 = not remarkable, 2 and higher increasing severity
  Score (histopathology liver necrosis severity score): 3

## O=NN(CCCl)C(=O)NCCCl [carmustine]
72 h, dose 16
  Liver Toxicity Necrosis Classification: no
[6]
  Liver Toxicity Necrosis Classification: no
[7]
  Liver Toxicity Necrosis Classification: no
compound-dosegroup at 72 h; dose 16
  Liver Toxicity Necrosis Classification: no
rat, intraperitoneal, dose 16 mg/kg, 72 hours after treatment
  Liver Necrosis: no
rat, intraperitoneal, dose 16 mg/kg, 72 hours; 1 = not remarkable, 2 and higher increasing severity
  Score (histopathology liver necrosis severity score): 1

## ClC(Cl)Cl [chloroform]
rat, in vivo
  Liver Toxicity Necrosis Classification: no
rat, in vivo, ip
  Liver Necrosis: no
  Score (histopathology liver necrosis severity score): 1

## CN(C)CCCN1c2ccccc2Sc2ccc(Cl)cc21 [chlorpromazine]
Sprague Dawley, rat, in vivo, ip, 8 mg/kg, 72 h
  Score (histopathology liver necrosis severity score): 1
Sprague Dawley, rat, in vivo, ip, 30 mg/kg, 72 h
  Score (histopathology liver necrosis severity score): 1
rat, in vivo
  Liver Toxicity Necrosis Classification: no
rat, in vivo, ip, 8 mg/kg
  Liver Necrosis: no
rat, in vivo, ip, 30 mg/kg
  Liver Necrosis: no

## N.N.[Cl][Pt][Cl] [cisplatin]
rat, intraperitoneal, dose 10 mg/kg, 72 hours after treatment
  Liver Necrosis: no
rat, intraperitoneal, dose 10 mg/kg, 72 hours; 1 = not remarkable, 2 and higher increasing severity
  Score (histopathology liver necrosis severity score): 1

## CCOC(=O)C(C)(C)Oc1ccc(Cl)cc1 [clofibrate]
Sprague Dawley, rat, in vivo, ip, 75 mg/kg, 72 h
  Score (histopathology liver necrosis severity score): 1
Sprague Dawley, rat, in vivo, ip, 250 mg/kg, 72 h
  Score (histopathology liver necrosis severity score): 1
rat, in vivo
  Liver Toxicity Necrosis Classification: no
rat, in vivo, ip, 75 mg/kg
  Liver Necrosis: no
rat, in vivo, ip, 250 mg/kg
  Liver Necrosis: no

## CN1CCN(C2=Nc3cc(Cl)ccc3Nc3ccccc32)CC1 [clozapine]
Sprague Dawley, rat, in vivo, ip, 45 mg/kg, 72 h
  Score (histopathology liver necrosis severity score): 1
Sprague Dawley, rat, in vivo, ip, 180 mg/kg, 72 h
  Score (histopathology liver necrosis severity score): 1
rat, in vivo
  Liver Toxicity Necrosis Classification: no
rat, in vivo, ip, 45 mg/kg
  Liver Necrosis: no
rat, in vivo, ip, 180 mg/kg
  Liver Necrosis: no

## O=C(O)c1cc(-c2ccc(F)cc2F)ccc1O [diflunisal]
Sprague Dawley, rat, in vivo, ip, 25 mg/kg, 72 h
  Score (histopathology liver necrosis severity score): 1
Sprague Dawley, rat, in vivo, ip, 100 mg/kg, 72 h
  Score (histopathology liver necrosis severity score): 1
rat, in vivo
  Liver Toxicity Necrosis Classification: no
rat, in vivo, ip, 25 mg/kg
  Liver Necrosis: no
rat, in vivo, ip, 100 mg/kg
  Liver Necrosis: no

## CN(C)N=O [dimethylnitrosamine]
72 h, dose 20
  Liver Toxicity Necrosis Classification: yes
72 h; dose 20
  Liver Toxicity Necrosis Classification: yes
compound-dose group at 72 h; CCL4 1000, DMN 20, LPS 8
  Liver Toxicity Necrosis Classification: yes
[3]
  Liver Necrosis: Yes
[4]
  Score (histopathology liver necrosis severity score): 9

## COc1cccc2c1C(=O)c1c(O)c3c(c(O)c1C2=O)C[C@@](O)(C(=O)CO)C[C@@H]3O[C@H]1C[C@H](N)[C@H](O)[C@H](C)O1 [doxorubicin]
Sprague Dawley, rat, in vivo, ip, 12 mg/kg, 72 h
  Score (histopathology liver necrosis severity score): 1
rat, in vivo
  Liver Toxicity Necrosis Classification: no
rat, in vivo, ip, 12 mg/kg
  Liver Necrosis: no

## CCC(=O)O[C@H]1[C@H](O[C@@H]2[C@@H](C)[C@H](O[C@H]3C[C@@](C)(OC)[C@@H](O)[C@H](C)O3)[C@@H](C)C(=O)O[C@H](CC)[C@@](C)(O)[C@H](O)[C@@H](C)C(=O)[C@H](C)C[C@@]2(C)O)O[C@H](C)C[C@@H]1N(C)C [erythromycin estolate]
72 h, dose 40
  Liver Toxicity Necrosis Classification: no
compound-dose group at 72 h; dose 40
  Liver Toxicity Necrosis Classification: no
compound-dose group at 72 h; dose 160
  Liver Toxicity Necrosis Classification: no
Dose 40, 72 h
  Liver Toxicity Necrosis Classification: no
Dose 160, 72 h
  Liver Toxicity Necrosis Classification: no
rat, intraperitoneal, dose 40 mg/kg, 72 hours after treatment
  Liver Necrosis: no
rat, intraperitoneal, dose 40 mg/kg, 72 hours; 1 = not remarkable, 2 and higher increasing severity
  Score (histopathology liver necrosis severity score): 1
rat, intraperitoneal, dose 160 mg/kg, 72 hours after treatment
  Liver Necrosis: no
rat, intraperitoneal, dose 160 mg/kg, 72 hours; 1 = not remarkable, 2 and higher increasing severity
  Score (histopathology liver necrosis severity score): 1

## C[C@]12CC[C@@H]3c4ccc(O)cc4CC[C@H]3[C@@H]1CC[C@@H]2O [estradiol]
Sprague Dawley, rat, in vivo, ip, 0.1 mg/kg, 72 h
  Score (histopathology liver necrosis severity score): 1
Sprague Dawley, rat, in vivo, ip, 0.4 mg/kg, 72 h
  Score (histopathology liver necrosis severity score): 1
rat, in vivo
  Liver Toxicity Necrosis Classification: no
rat, in vivo, ip, 0.1 mg/kg
  Liver Necrosis: no
rat, in vivo, ip, 0.4 mg/kg
  Liver Necrosis: no

## CCO [ethanol]
rat, in vivo
  Liver Toxicity Necrosis Classification: no
rat, in vivo, ip
  Liver Necrosis: no
  Score (histopathology liver necrosis severity score): 1
